In US8822407B2, “Preparation of conjugates comprising adenine derivatives and allergenic proteins and their use for specific immunotherapy of allengenic diseases” (Universita' Degli Studi di Firenze, priority 2010, dated 2014):

What was measured:
purified B cells = assay: B cell activation (tritiated thymidine incorporation); assay type: cell-based, human
Method: Circulating mononuclear cells (MNC) are isolated by Ficoll-Hypaque density gradient from buffy coats of healthy donors (Servizio Immunotrasfusionale e terapie cellulari, Azienda Ospedaliero Universitaria Pediatrica A. Meyer, Firenze). 200×10^6 MNC are then separated using the commercial CD19 isolation kit (Miltenyi) by the addition of 400 μl iron microbead-bound anti-CD19 monoclonal antibody followed by magnetic separation on LS column. 20×10^6 B cells are isolated by positive selection and are extensively washed by the use of calcium- and magnesium-free PBS and cultured in triplicates at the concentration of 1×10^6/ml/well in complete medium plus 10% foetal calf serum in 96-U plates. […] Plates are incubated in humidified atmosphere at 37° C. for 72 hrs and at the end 0.5 μCi tritiated thymidine is added to each well for further 16 hrs. The incorporated radioactivity is measured as already described in step (f) of Example 4.

TLR9 = molecular target: T1, TLR9 (Homo sapiens, UniProt Q9NR96); assay: TLR9-transfected HEK293 cells, NF-kB luciferase reporter; assay type: cell-based; conditions: CpG-ODN 2006 1.3 μM; data not shown
T1 construct: expressed in transfected cells; host or cells: HEK293 (transient Nucleofection, Amaxa)
T1 sequence (Q9NR96 26-1032): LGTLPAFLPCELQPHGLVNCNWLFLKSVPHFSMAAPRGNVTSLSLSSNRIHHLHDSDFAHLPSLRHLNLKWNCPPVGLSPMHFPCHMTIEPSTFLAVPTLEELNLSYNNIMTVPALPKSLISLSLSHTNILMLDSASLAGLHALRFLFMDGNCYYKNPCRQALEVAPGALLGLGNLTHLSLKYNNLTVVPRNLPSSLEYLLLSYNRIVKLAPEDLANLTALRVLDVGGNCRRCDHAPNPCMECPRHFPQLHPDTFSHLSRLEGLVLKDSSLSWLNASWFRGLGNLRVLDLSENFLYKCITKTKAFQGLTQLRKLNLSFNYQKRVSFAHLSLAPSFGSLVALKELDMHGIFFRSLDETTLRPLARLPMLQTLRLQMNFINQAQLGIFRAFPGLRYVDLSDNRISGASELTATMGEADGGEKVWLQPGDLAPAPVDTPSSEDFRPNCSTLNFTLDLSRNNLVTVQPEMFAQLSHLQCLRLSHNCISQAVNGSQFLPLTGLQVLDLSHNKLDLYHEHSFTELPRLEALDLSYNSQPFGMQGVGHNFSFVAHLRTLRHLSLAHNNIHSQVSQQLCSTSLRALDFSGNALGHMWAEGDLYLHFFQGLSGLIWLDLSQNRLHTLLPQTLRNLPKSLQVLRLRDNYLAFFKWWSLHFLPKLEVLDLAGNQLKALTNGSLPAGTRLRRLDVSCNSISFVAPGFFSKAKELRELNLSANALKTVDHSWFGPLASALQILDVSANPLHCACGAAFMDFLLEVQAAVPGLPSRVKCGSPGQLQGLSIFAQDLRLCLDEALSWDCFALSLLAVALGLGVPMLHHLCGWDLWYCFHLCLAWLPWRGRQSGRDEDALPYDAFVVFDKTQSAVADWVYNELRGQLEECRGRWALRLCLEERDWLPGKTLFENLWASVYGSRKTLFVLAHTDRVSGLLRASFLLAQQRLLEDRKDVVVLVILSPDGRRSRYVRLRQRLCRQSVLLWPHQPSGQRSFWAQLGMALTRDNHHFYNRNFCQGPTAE
Method: (§1) HEK293 cells are detached by trypsin from the plastic surface of the culture bottle, extensively washed with calcium and magnesium-free PBS, counted and adjusted at the concentration 1×10^6 cells/tube in polypropylene V-bottomed tubes. After the final wash, the cells are pelleted and 100 μl transfection buffer (Amaxa) is added together with […], TLR7, TLR8 or TLR9-encoding and ELAM-1 promoter NF-kB luciferase reporter plasmids. The mixture thus obtained is transferred in special cuvettes and transient transfection is obtained in a special apparatus which is able to directly introduce genetic material into the nucleus (Nucleofection®, Amaxa GmbH). The cells are then recovered and cultured at 1×10^5/ml in 48-flat bottomed plates in E-MEM medium plus 5% foetal calf serum for 18 hrs. […] Finally the luciferase activity is measured in the cellular lysates by a commercial kit (Promega).

TLR3 = molecular target: T2, TLR3 (Homo sapiens, UniProt O15455); assay: TLR3-transfected HEK293 cells, NF-kB luciferase reporter; assay type: cell-based; conditions: Poly I:C 50 μg/ml; data not shown
T2 construct: expressed in transfected cells; host or cells: HEK293 (transient Nucleofection, Amaxa)
T2 sequence (O15455 24-904): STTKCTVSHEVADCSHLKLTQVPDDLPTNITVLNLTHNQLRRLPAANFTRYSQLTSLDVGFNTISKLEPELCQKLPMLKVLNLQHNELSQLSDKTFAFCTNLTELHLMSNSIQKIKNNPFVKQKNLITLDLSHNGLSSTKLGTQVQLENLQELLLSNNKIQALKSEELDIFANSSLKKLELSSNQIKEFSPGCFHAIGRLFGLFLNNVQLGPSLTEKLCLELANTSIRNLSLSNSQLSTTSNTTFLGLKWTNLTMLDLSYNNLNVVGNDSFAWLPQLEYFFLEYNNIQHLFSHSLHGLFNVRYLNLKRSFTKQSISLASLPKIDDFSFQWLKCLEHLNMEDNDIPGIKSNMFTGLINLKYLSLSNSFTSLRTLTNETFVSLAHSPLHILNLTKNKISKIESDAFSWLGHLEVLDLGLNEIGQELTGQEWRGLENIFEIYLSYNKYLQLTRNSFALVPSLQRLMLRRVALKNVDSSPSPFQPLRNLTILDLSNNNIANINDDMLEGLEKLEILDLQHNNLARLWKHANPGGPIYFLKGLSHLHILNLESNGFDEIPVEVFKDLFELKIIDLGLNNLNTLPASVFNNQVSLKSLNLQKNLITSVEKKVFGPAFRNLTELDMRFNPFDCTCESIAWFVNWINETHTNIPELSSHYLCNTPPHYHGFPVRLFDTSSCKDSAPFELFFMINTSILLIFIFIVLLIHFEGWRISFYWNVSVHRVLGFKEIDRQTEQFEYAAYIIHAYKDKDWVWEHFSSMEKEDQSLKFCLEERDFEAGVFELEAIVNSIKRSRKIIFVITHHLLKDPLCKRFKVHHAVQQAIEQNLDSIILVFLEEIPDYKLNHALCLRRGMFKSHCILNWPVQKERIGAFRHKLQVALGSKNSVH
Method: as §1

purified CD14+ cells = assay: Cytokine production by purified CD14+ cells (ELISA of supernatants, 36 hrs); assay type: cell-based, human
Method: Circulating mononuclear cells (MNC) are isolated by density gradient (Ficoll-Hypaque) using buffy coats from 14 normal donors (Servizio Immunotrasfusionale e terapie cellulari, Azienda Ospedaliera Universitaria A. Meyer, Firenze). 200×10^6 MNC are separated by the use of a commercial kit (CD14 isolation kit, Miltenyi) by the addition of 400 μl anti-CD14 monoclonal antibody bound to iron beads followed by isolation on magnetic columns (LS column). 50×10^6 monocytes are recovered by positive selection and are extensively washed with calcium and magnesium-free sterile PBS and then seeded in complete medium plus 10% foetal calf serum in 24 flat bottomed plates at the concentration of 1×10^6/ml. […] The plates are incubated for 36 hrs at 37° C. in 5% CO2 humidified atmosphere and the supernatants are collected after centrifugation at 1200 rpm, aliquoted and then stored at −20° C. up to the assay. […]
For the determination of cytokines and chemokines of the innate immunity, commercial ELISAs have been used: IL-12p40 (Cytoscreen, Biosource Int, Camarillo, Calif.), IFN-alfa (Cytoscreen), TNF-alfa (Cytoscreen), IL-10 (Pharmingen), IL-6 and CXCL10 (R&D System). 100 μl/well of single supernatants are incubated in flat bottomed plates as specified by the productors and the amounts of the single cytokines are expressed as pg/ml on the basis of a reference curve by using recombinant cytokines.

BALB/C and C57BL/6 mice = assay: Modification of antibody response in sensitized mice (serum IgE); assay type: in vivo; conditions: mice sensitized i.p. with 10 μg in alum
Method: Ten BALB/C and ten C57BL/6 6-8 wk-old female mice (Charles River) have been intraperitoneally sensitized at day 0 and d 7 with 10 μg OVA (5 animals per strain) or OVA-conj (5 animals per strain) in the presence of alum. At d 14 and d 18 animals are stimulated intratracheally with 10 μg OVA and after 24 hrs unspecific bronchial hyperreactivity is measured administering first an aerosolized PBS solution to obtain the standard value and then an aerosolized solution containing increasing concentrations of methacolin for 3 min (6.25-12.5-25-50 mg/ml). The pletismograph in which the animal is inserted is able to monitor the values of airflow resistance.
Serum levels of total and OVA-specific IgE have been determined at d 14 and d 18 (before the intratracheal allergic stimulation) in sensitized animals by the use of commercial kits.

[1] = Table A, Donor #1, LPS, dose not printed in table (100 ng/ml elsewhere in the source)
[2] = Table A, Donor #2, LPS, dose not printed in table (100 ng/ml elsewhere in the source)
[3] = Table E, Donor #1, dose 0.1 μg/ml
[4] = Table E, Donor #2, dose 0.1 μg/ml

Q: With CpG-ODN 2006 [reference compound] as the molecule, how does the “Stimulation index (mean ± SE)” value (purified B cells; B cell proliferation, concentration 10 μg/ml) read?
A: 90.3 ± 7.5

Q: And the “proliferation of purified B lymphocytes (in words)” value (purified B cells; thymidine incorporation)?
A: high levels of incorporation of radioactive thymidine

Q: And the “NF-κB expression in TLR9-transfected HEK293 cells” value (TLR9)?
A: able to induce NF-κB expression

Q: How did the “NF-κB expression in TLR3-expressing HEK293 cells” value (TLR3) turn out when Poly I:C was run?
A: activates TLR3-expressing cells

Q: Which IL-6 production (purified CD14+ cells; [1]) does the source give for “lipopolysaccharide [LPS, reference compound]” here?
A: 12905 pg/mL

Q: And the IL-10 production (purified CD14+ cells; [1])?
A: 8140 pg/mL

Q: What about the IL-12p40 production (purified CD14+ cells; [1]) of the same molecule?
A: 2725 pg/mL

Q: And the TNF-alfa production (purified CD14+ cells; [1])?
A: 5331 pg/mL

Q: And the IL-6 production (purified CD14+ cells; [2])?
A: 3125 pg/mL

Q: And the IL-10 production (purified CD14+ cells; [2])?
A: 1155 pg/mL

Q: What about the IL-12p40 production (purified CD14+ cells; [2]) of the same molecule?
A: 6311 pg/mL

Q: And the TNF-alfa production (purified CD14+ cells; [2])?
A: 4619 pg/mL

Q: And the “IL-6 production (mean ± SE)” value (purified CD14+ cells; Table B, dose 1 μg/ml)?
A: 17.5 ± 4.9 ng/mL

Q: And the “IL-10 production (mean ± SE)” value (purified CD14+ cells; Table B, dose 1 μg/ml)?
A: 7.9 ± 1.9 ng/mL

Q: What about the “IL-12p40 production (mean ± SE)” value (purified CD14+ cells; Table B, dose 1 μg/ml) of the same molecule?
A: 3.8 ± 1.7 ng/mL

Q: What about the “TNF-alfa production (mean ± SE)” value (purified CD14+ cells; Table B, dose 1 μg/ml) of the same molecule?
A: 7.6 ± 2.7 ng/mL

Q: What about the IL-6 production (purified CD14+ cells; [3]) of the same molecule?
A: 27235 pg/mL

Q: What about the IL-10 production (purified CD14+ cells; [3]) of the same molecule?
A: 530 pg/mL

Q: What about the IL-12p40 production (purified CD14+ cells; [3]) of the same molecule?
A: 5627 pg/mL

Q: And the TNF-alfa production (purified CD14+ cells; [3])?
A: 3136 pg/mL

Q: What about the IL-6 production (purified CD14+ cells; [4]) of the same molecule?
A: 39499 pg/mL

Q: What about the IL-10 production (purified CD14+ cells; [4]) of the same molecule?
A: 3000 pg/mL

Q: What about the IL-12p40 production (purified CD14+ cells; [4]) of the same molecule?
A: 10522 pg/mL

Q: What about the TNF-alfa production (purified CD14+ cells; [4]) of the same molecule?
A: 14061 pg/mL

Q: What about the “cytokine production from purified CD14+ cells (in words)” value (purified CD14+ cells; text to Tables A and B) of the same molecule?
A: relevant amounts of modulatory (IL-12) and inflammatory (TNF-alfa and IL-6) cytokines

B1: ovalbumin (protein, UniProt P01012 2-386, looked up)
Ovalbumin: GSIGAASMEFCFDVFKELKVHHANENIFYCPIAIMSALAMVYLGAKDSTRTQINKVVRFDKLPGFGDSIEAQCGTSVNVHSSLRDILNQITKPNDVYSFSLASRLYAEERYPILPEYLQCVKELYRGGLEPINFQTAADQARELINSWVESQTNGIIRNVLQPSSVDSQTAMVLVNAIVFKGLWEKAFKDEDTQAMPFRVTEQESKPVQMMYQIGLFRVASMASEKMKILELPFASGTMSMLVLLPDEVSGLEQLESIINFEKLTEWTSSNVMEERKIKVYLPRMKMEEKYNLTSVLMAMGITDVFSSSANLSGISSAESLKISQAVHAAHAEINEAGREVVGSAEAGVDAASVSEEFRADHPFLFCIKHIATNAVLFFGRCVSP
notes: ovalbumin (OVA grade V)
Q: B1 was tested. Which “Total IgE (mean ± SE)” value (BALB/C and C57BL/6 mice; d14 pre-challenge) did it give?
A: 966 ± 268 pg/mL

Q: What about the “Total IgE (mean ± SE)” value (BALB/C and C57BL/6 mice; d18 post-challenge) of the same molecule?
A: 680 ± 234 pg/mL
